Type in all cases: cell-based
For experiment [1], the system named is M. tuberculosis in human macrophages. The experiment can be described thus: Colony-forming unit assay to assess pathogen death. The procedure: Example 4 and Example 5 detail exemplary methods used to determine whether the mycobacteria strains were killed by the addition of gallium nitrate. […] The bacteria were resuspended in 7H9 broth (BBL Microbiology Systems) or onto agar plates without gallium nitrate and incubated under conditions known to promote bacterial growth. In Example 4, the growth index for these cultures was assessed after 6 weeks to determine whether bacteria are inhibited or killed. […] In Example 5, M. tuberculosis-infected macrophages cell lysates were plated onto the surface of media able to support M. tuberculosis growth. Colony forming unit assays were counted to assess bacterial death or inhibition.
The growth index assay cannot always clearly distinguish between bacterial survival (without multiplication) and bacterial death. Therefore, colony forming unit assays were also used to assess the bactericidal activity of gallium-containing compounds in these experiments. Lysed monolayers were plated in Middlebrook 7H11 plates and colonies forming on the plates were counted after 14 days. […] In fact, this experiment provided the most graphic illustration of the influence of gallium nitrate on bacterial killing. That is, control-infected monolayers were lysed as a result of bacterial multiplication so that macrophages could no longer be visualized by microscopy. […] Importantly, the results in the colony-forming unit assay resemble the results obtained with the radiometric BACTEC assay.

Experiment [2] concerns M. tuberculosis in human alveolar macrophages. The experiment is described as follows: M. tuberculosis in human alveolar macrophages, gallium nitrate with or without anti-tuberculous antibiotics. The procedure:
The gallium-containing compounds can also be tested for their ability to inhibit intracellular pathogens in tissue culture assays. In general, in these assays, the macrophages are placed in culture and incubated with the intracellular pathogen at an approximate cell to pathogen ratio of preferably at least 1:1 to about 1:5 cells:pathogen. Exemplary culture conditions are provided in the assays detailed in the Examples. For assays assessing M. tuberculosis infection, freshly adherent monocytes, 12 day-old adherent MDMs, or freshly adherent alveolar macrophages are incubated with M. tuberculosis, MAI or other intracellular bacteria at a ratio of about 1:1 to about 1:5 (phagocyte:bacterium). For M. tuberculosis or MAI, the bacteria are incubated with the phagocyte for 2 hr at 37° C. in RPMI/HEPES media with 2.5% serum or human serum albumin (serum-free). The cells are washed to remove non-adherent bacteria and monolayers are replated with RPMI containing 1% autologous serum (to maintain phagocyte viability but not to sustain extracellular growth of bacteria). Gallium-containing compounds, such as gallium nitrate, with, or without, other agents such as antibiotics, cytokines etc., are added about 24 hr. later and mycobacterial growth in cell lysates is then assessed over the next several days either by the radiometric BACTEC system or by colony-forming units on agarose plates. In each experiment, growth is assessed relative to control monolayers where no drug has been added.
Human alveolar macrophages were purified from healthy non-smoking adult volunteers and placed in monolayer culture. M. tuberculosis infected cells were treated with gallium nitrate as described in Example 2. Antituberculous antibiotics were added to wells alone or with gallium nitrate at 500 μM 24 h after M. tuberculosis infection. Antituberculous antibiotics tested included streptomycin (2.016 μg/ml), isoniazid (0.1 μg/ml), rifampin (2.0 μg/ml), and ethambutol (2.52 μg/ml) and the combination of antibiotics was denoted as SIRE. Antibiotics were obtained in lyophilized form from BACTEC. The antibiotics were reconstituted in sterile water per package instructions. With reference to FIG. 3, SIRE refers to combinations of streptomycin, isoniazid, rifampin and ethambutol while IR refers to combinations of Isoniazid and rifampin.
Infected macrophages were cultured for 24 h, 48 h, or 120 h. Growth index readings of combined supernatants and cell lysates were measured in the BACTEC 460 TB system. […] Since these antibiotics have a number of unpleasant side effects that are reduced at reduced concentrations of the drugs, combined therapies that permit these antibiotics to be administered at lower doses when combined with gallium nitrate is significant and may help to promote better drug compliance in patients infected with M. tuberculosis.

The subject of experiment [3] is P. aeruginosa strain PA01. The experiment can be described thus: Growth inhibition of P. aeruginosa in iron-supplemented succinate medium. The note with it: for A600 (growth): 1 μM ferric chloride, 7 h, control A600=0.297. The procedure:
In another embodiment of this invention, P. aeruginosa, the principle cause of chronic lung infections in patients with cystic fibrosis, was also determined to be susceptible to gallium-containing compounds. The PA01 strain of P. aeruginosa only grew in an iron-restricted succinate based broth medium (Cox, CD. Infect. Immun. 52:263-270, 1986) that included exogenous Ferric chloride or iron chelated to either of the siderophores pyochelin or pyoverdin at concentrations of 1 μM or greater. The addition of gallium nitrate to the iron supplemented medium inhibited P. aeruginosa growth (see Example 15). Growth was measure by monitoring the culture medium absorbance at 600 nm.
P. aeruginosa strain PA01 was suspended in succinate-based medium (Cox, C. D., Infect. Immun. 52:262-270, 1986) to an optical density of approximately 0.040 at 600 nm in the absence (negative control) or presence of 1 μM ferric chloride (positive growth control). To some aliquots of both positive and negative control conditions, gallium nitrate was added at varying concentrations. The bacterial suspensions were placed at 37° C. for 7 h and growth was determined by measuring absorbance at 600 nm. […] With the inclusion of ferric chloride the concentration of organisms increased nearly eight fold A600=0.297).

The test system of experiment [4] is M. avium-intracellulare complex (MAI), patient isolate. The experiment can be described thus: Growth inhibition of MAI (patient isolate) in human alveolar macrophages. The note with it: 500 μM, 24 hr and 48 hr. The procedure:
M. avium-intracellulare complex (MAI) was obtained from the ATCC (#25291) and from a patient isolate from the State Hygienic laboratory at the University of Iowa Hospital and Clinics. Human alveolar macrophages were obtained from broncholavage of healthy patients and placed in monolayer culture. The bacteria were added to the cells in a bacteria to macrophage ratio of about 1:1. Growth index readings were obtained at 24 hr and 48 hr after gallium nitrate administration (500 μM) as described in Example 3 and used by Cavalieri, et al. (Antimicrob. Agents and Chemo. 39:1542-1545,1995).

The values below come from patent US6203822A, “Gallium-containing compounds for the treatment of infections caused by intracellular pathogens and pathogens causing chronic pulmonary infection” (priority 1996, dated 2001).

For the compound `O=[N+]([O-])[O-].O=[N+]([O-])[O-].O=[N+]([O-])[O-].[Ga+3]` [gallium nitrate], the “colony-forming units from macrophage lysates, trend” value in experiment [1] (between days 2 and 5 following gallium nitrate) is given as “continuous decrease in colony-forming units”. The “killing of M. tuberculosis” value in experiment [1] (colony forming unit assay, FIG. 5) is “M. tuberculosis were killed”. For the same compound, in experiment [1] (day 5), the “colony-forming units relative to initial amount of bacteria in macrophages” value is listed as “only slightly below the initial amount of bacteria in macrophages”. Further, in experiment [1] (during assay, control-infected monolayers were lysed), the “monolayer of treated infected macrophages” value is recorded as “maintained a very good monolayer”. In addition, in experiment [2] (gallium nitrate 500 μM plus suboptimal antibiotics (1/10 the standard concentrations), human alveolar macrophages), the “augmentation of growth inhibition by antibiotics” value is “augments the ability of suboptimal concentrations of antibiotics”. In addition, the “enhancement of antibiotic growth inhibition” value in experiment [2] (suboptimal streptomycin, isoniazid, rifampin and ethambutol or suboptimal Isoniazid and rifampin) is “clear-cut enhancement in inhibition of M. tuberculosis growth”. For the same compound, the “growth inhibition in words” value was “Slight inhibition” in experiment [3] (1 μM gallium nitrate) and “completely inhibited” in experiment [3] (100 μM gallium nitrate). Besides, the entries for the “A600 (growth)” value in experiment [3] (1 μM gallium nitrate), in experiment [3] (10 μM gallium nitrate) and in experiment [3] (100 μM gallium nitrate) were 0.270, 0.130 and 0.043, respectively. Also, in experiment [3] (10 μM gallium nitrate), the decrease of growth entry is “more than 50%”. Besides, the “P. aeruginosa growth inhibition” value in experiment [3] (100 μM and 10 μM gallium nitrate, ferric chloride supplemented) is “Significant inhibition”. For the same compound, the entries for the “growth inhibition of MAI” value in experiment [4] and in experiment [4] (listed as Gallium nitrate) were “inhibits the growth of MAI” and “significant inhibition of MAI growth”, respectively.
